US20090054455A1, “ARIPIPRAZOLE CO-CRYSTALS” (DR. REDDY'S LABORATORIES LTD., priority 2006, published 2009)

Key:
[1] = Polymorphic stability on storage, checked by XRPD; format: physicochemical; settings: stored 3 months in self-sealing polyethylene bag, normal atmospheric conditions, room temperature
Procedure: The process of the present invention provides stable co-crystals of aripiprazole with fumaric acid. The term “stable crystalline form” refers to stability of the crystalline form under the standard temperature and humidity conditions of testing of pharmaceutical products, wherein the stability is indicated by preservation of the original polymorphic form.
Aripiprazole was prepared according to the process given in Example 2 and was packaged in a self-sealing polyethylene bag. The material was stored for 3 months under normal atmospheric conditions at room temperature and checked for polymorphic stability.

[2] = cited from earlier work

polymorphic stability (maintenance of the original XRPD pattern) [1] | SMILES | solubility in aqueous media [2]
retain its polymorphic form | O=C(O)C=CC(=O)O.O=C1CCc2ccc(OCCCCN3CCN(c4cccc(Cl)c4Cl)CC3)cc2N1.O=C1CCc2ccc(OCCCCN3CCN(c4cccc(Cl)c4Cl)CC3)cc2N1 [Example 2] | 
 | O=C1CCc2ccc(OCCCCN3CCN(c4cccc(Cl)c4Cl)CC3)cc2N1 [aripiprazole, 7-[4-[4-(2,3-dichlorophenyl)-1-piperazinyl]butoxy]-3,4-dihydrocarbostyril] | practically insoluble
